Data taken from the supplement of paper PMC10307832.

How the values were obtained:
Assay in all cases: relative viability (nuclei count vs DMSO), 5 days (fraction); higher = more cells survive
CX-5461 + Olaparib = compound: Cc1cnc(CNC(=O)c2c(=O)c3ccc(N4CCCN(C)CC4)nc3n3c2sc2ccccc23)cn1 [CX-5461] + O=C(c1cc(Cc2n[nH]c(=O)c3ccccc23)ccc1F)N1CCN(C(=O)C2CC2)CC1 [Olaparib] (partner 8 µM)
In short: (§1)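 Values are medians from duplicate plates. Each reflects relative viability, defined as the nuclei count of treated wells over that of vehicle wells. Lung cancer cell lines in 1536-well plates were pin-tool dosed one day after seeding with one drug alone or with a fixed anchor-drug dose plus five library-drug doses (not always all listed) in √10 steps, then fixed, stained and imaged at 4× after 5 days.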

CX-5461 + Lapatinib = compound: Cc1cnc(CNC(=O)c2c(=O)c3ccc(N4CCCN(C)CC4)nc3n3c2sc2ccccc23)cn1 [CX-5461] + CS(=O)(=O)CCNCc1ccc(-c2ccc3ncnc(Nc4ccc(OCc5cccc(F)c5)c(Cl)c4)c3c2)o1 [Lapatinib] (partner 2 µM)
In short: as §1

CX-5461 + Tozasertib = compound: Cc1cnc(CNC(=O)c2c(=O)c3ccc(N4CCCN(C)CC4)nc3n3c2sc2ccccc23)cn1 [CX-5461] + Cc1cc(Nc2cc(N3CCN(C)CC3)nc(Sc3ccc(NC(=O)C4CC4)cc3)n2)n[nH]1 [Tozasertib] (partner 0.1 µM)
In short: as §1

CX-5461 + Bortezomib = compound: Cc1cnc(CNC(=O)c2c(=O)c3ccc(N4CCCN(C)CC4)nc3n3c2sc2ccccc23)cn1 [CX-5461] + CC(C)C[C@H](NC(=O)[C@H](Cc1ccccc1)NC(=O)c1cnccn1)B(O)O [Bortezomib] (partner 0.002 µM)
In short: as §1

Row | Cell Line | relative viability (CX-5461 + Olaparib; first compound 0.01 µM) | relative viability (CX-5461 + Olaparib; first compound 0.03162 µM) | relative viability (CX-5461 + Olaparib; first compound 0.1 µM) | relative viability (CX-5461 + Olaparib; first compound 0.3162 µM) | relative viability (CX-5461 + Olaparib; first compound 1 µM) | relative viability (CX-5461 + Lapatinib; first compound 0.01 µM) | relative viability (CX-5461 + Lapatinib; first compound 0.03162 µM) | relative viability (CX-5461 + Lapatinib; first compound 0.1 µM) | relative viability (CX-5461 + Lapatinib; first compound 0.3162 µM) | relative viability (CX-5461 + Lapatinib; first compound 1 µM) | relative viability (CX-5461 + Tozasertib; first compound 0.01 µM) | relative viability (CX-5461 + Tozasertib; first compound 0.03162 µM) | relative viability (CX-5461 + Tozasertib; first compound 0.1 µM) | relative viability (CX-5461 + Tozasertib; first compound 0.3162 µM) | relative viability (CX-5461 + Tozasertib; first compound 1 µM) | relative viability (CX-5461 + Bortezomib; first compound 0.01 µM) | relative viability (CX-5461 + Bortezomib; first compound 0.03162 µM) | relative viability (CX-5461 + Bortezomib; first compound 0.1 µM) | relative viability (CX-5461 + Bortezomib; first compound 0.3162 µM) | relative viability (CX-5461 + Bortezomib; first compound 1 µM)
1 | NCI-H2009 | 0.631 | 0.621 | 0.616 | 0.672 | 0.565 | 0.906 | 1.04 | 0.584 | 0.39 | 0.466 | 0.714 | 0.776 | 0.53 | 0.713 | 0.548 | 1.05 | 1.08 | 0.644 | 0.867 | 0.492
2 | NCI-H2405 | 0.9 | 0.891 | 0.866 | 0.792 | 0.639 | 1.18 | 1.07 | 1.18 | 0.541 | 0.808 | 0.746 | 0.882 | 0.702 | 0.549 | 0.544 | 0.998 | 0.976 | 0.987 | 1.13 | 0.953
3 | NCI-H1755 | 0.85 | 0.929 | 0.819 | 0.806 | 0.818 | 1.05 | 1.03 | 1.06 | 0.531 | 0.972 | 0.49 | 0.568 | 0.565 | 0.529 | 0.467 | 1.05 | 1.03 | 0.972 | 0.99 | 0.877
4 | HCC-78 | 0.977 | 0.856 | 0.949 | 0.816 | 0.738 | 1 | 0.916 | 0.734 | 0.244 | 0.565 | 0.463 | 0.391 | 0.466 | 0.326 | 0.453 | 0.434 | 0.485 | 0.548 | 0.498 | 0.428
5 | LOU-NH91 | 0.973 | 0.992 | 0.901 | 0.524 | 0.704 | 0.63 | 0.811 | 0.747 | 0.442 | 0.68 | 0.75 | 0.729 | 0.648 |  | 0.632 | 0.509 | 0.492 | 0.485 |  | 0.452
6 | NCI-H3122 | 0.695 | 0.653 | 0.615 | 0.667 | 0.617 | 1.01 | 0.992 | 0.897 | 1 | 0.854 | 0.389 | 0.537 | 0.352 | 0.314 | 0.262 | 0.95 | 1.06 | 1.07 | 1.02 | 0.914
7 | HCC-827 | 0.703 | 0.69 | 0.767 | 0.644 | 0.611 | 0.198 | 0.223 | 0.22 | 0.203 | 0.19 | 0.451 | 0.376 | 0.425 | 0.411 | 0.43 | 1.01 | 1.06 | 1.02 | 1.06 | 0.997
8 | SW 1573 | 0.395 | 0.468 | 0.29 | 0.438 | 0.141 | 1.2 | 1.26 | 0.989 | 0.691 | 0.546 | 0.183 | 0.161 | 0.147 | 0.172 | 0.166 | 0.952 | 1.22 | 1.03 | 0.924 | 0.763
